Peptide text beside a SMILES is read from it.
Tested on: T-cells in HAM/TSP patient PBMC culture
Assay: Ex vivo spontaneous T-cell proliferation assay using HAM/TSP peripheral blood
Format: cell-based, human
Conditions: FIG. 4D
Protocol: Proliferation assays were performed on HAM/TSP patient blood samples with and without the addition of BNZ-γ. These assays evaluated the ability of BNZ-γ to block the function of cytokines, such as IL-2 and IL-15, present in the ex vivo HAM/TSP patient blood culture and prevent spontaneous T-cell proliferation in these samples.
In an ex vivo spontaneous T-cell proliferation assay, PBMC from HAM/TSP patient was cultured at 1×10(6) cells per well of a 96 well plate in RPMI-10% FCS. Increasing concentrations of BNZ-γ peptide were added to each well. As a control, an irrelevant peptide was used in similar fashion. The cells were incubated in a 37° C. CO2 incubator for 3, 4, and 6 days. The amount of 1 uCi of ^3H-thymidine was added to the cells. After an additional 6 hour incubation, cells were harvested their proliferation rate was measured. As indicated in FIG. 4A-FIG. 4D, BNZ-γ peptide inhibits the spontaneous proliferation of T-cells in HAM/TSP culture at a concentration of about 1 ug/ml.
Other immunological markers were additionally measured in this assay. The percentage of the viral specific CD8 cells was measured during the ex vivo culture using viral protein tetramers. The population of CD4+CD25+ cells, a marker of T-cell activation, as well as Ki67 staining, a marker of T-cell proliferation, was monitored in a flow cytometry assay.

## CC[C@H](C)[C@H](N)C(=O)N[C@@H](CCCCN)C(=O)N[C@@H](CCC(=O)O)C(=O)N[C@@H](Cc1ccccc1)C(=O)N[C@@H](CC(C)C)C(=O)N[C@@H](CCC(N)=O)C(=O)N[C@@H](CCCNC(=N)N)C(=O)N[C@@H](Cc1ccccc1)C(=O)N[C@H](C(=O)N[C@@H](Cc1c[nH]cn1)C(=O)N[C@H](C(=O)N[C@H](C(=O)N[C@@H](CCC(N)=O)C(=O)N[C@@H](CO)C(=O)N[C@H](C(=O)N[C@H](C(=O)N[C@@H](CC(N)=O)C(=O)N[C@H](C(=O)N[C@@H](CO)C(=O)O)[C@@H](C)O)[C@@H](C)CC)[C@@H](C)CC)C(C)C)[C@@H](C)CC)[C@@H](C)CC [BNZ-γ, I-K-E-F-L-Q-R-F-I-H-I-V-Q-S-I-I-N-T-S] (H-IKEFLQRFIHIVQSIINTS-OH)
  percent of live cells by Guava staining: not impacted
